Measured values taken from patent US20090023814A1, “COMPOSITIONS AND METHODS HAVING MT1 RECEPTOR ACTIVITY” (AGI Therapeutics Research Ltd., priority 2007, published 2009).
Like-named read-outs stand apart in the source and are kept apart here.

Tests used:
[1] = molecular target: T1, 5-HT2B receptor (Homo sapiens, UniProt P41595); test: 5-HT2B binding affinity, human recombinant-CHO cells, 5-HT as control (Bonhaus); conditions: for IC50: agonist 5-HT2B receptor
T1 construct: expressed in transfected cells; host or cells: CHO cells
Procedure: (§1) Each of those receptors were analyzed by methods known in the art. Initial assessment of binding at 100×10^−7 M (10 micro molar) was performed in duplicate.

[2] = molecular target: T2, melatonin ML-1; test: ML1 binding affinity, chicken brain; conditions: Table 1; chicken brain
T2 construct: chicken brain
Procedure: as §1

[3] = molecular target: melatonin ML-1; test: ML1 binding affinity, chicken brain; conditions: Table 2; relative potency compared to CCB
Procedure: as §1

[4] = molecular target: T3, MT2 receptor (Homo sapiens, UniProt P49286); conditions: at 100×10^−7 M
T3 sequence (P49286 1-362): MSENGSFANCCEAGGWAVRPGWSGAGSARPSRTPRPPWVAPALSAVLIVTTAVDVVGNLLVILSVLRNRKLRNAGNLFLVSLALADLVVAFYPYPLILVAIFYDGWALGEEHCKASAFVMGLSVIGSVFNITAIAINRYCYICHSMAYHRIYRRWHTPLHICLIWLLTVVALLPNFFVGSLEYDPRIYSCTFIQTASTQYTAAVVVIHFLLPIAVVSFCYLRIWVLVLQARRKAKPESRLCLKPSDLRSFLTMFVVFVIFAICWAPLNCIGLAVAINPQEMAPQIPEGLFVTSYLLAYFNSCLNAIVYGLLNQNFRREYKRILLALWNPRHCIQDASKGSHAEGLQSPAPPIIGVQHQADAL
Procedure: as §1

[5] = molecular target: melatonin MT-1 sub-receptor (Homo sapiens, UniProt P48039); conditions: Table 7
Procedure: as §1

T1 sequence (P41595 whole entry): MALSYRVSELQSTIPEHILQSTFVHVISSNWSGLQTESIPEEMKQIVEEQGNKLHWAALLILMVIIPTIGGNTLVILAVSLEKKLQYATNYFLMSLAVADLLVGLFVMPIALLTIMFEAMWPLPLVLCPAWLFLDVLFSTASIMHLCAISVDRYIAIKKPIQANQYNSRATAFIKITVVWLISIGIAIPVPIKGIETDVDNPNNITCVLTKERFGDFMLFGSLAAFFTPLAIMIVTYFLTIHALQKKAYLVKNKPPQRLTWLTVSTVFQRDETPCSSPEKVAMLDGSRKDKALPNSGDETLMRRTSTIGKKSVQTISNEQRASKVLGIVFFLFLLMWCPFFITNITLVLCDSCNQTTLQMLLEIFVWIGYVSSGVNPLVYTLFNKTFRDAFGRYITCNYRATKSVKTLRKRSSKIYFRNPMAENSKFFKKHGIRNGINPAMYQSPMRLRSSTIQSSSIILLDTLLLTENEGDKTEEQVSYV
Chain of melatonin MT-1 sub-receptor (P48039 whole entry): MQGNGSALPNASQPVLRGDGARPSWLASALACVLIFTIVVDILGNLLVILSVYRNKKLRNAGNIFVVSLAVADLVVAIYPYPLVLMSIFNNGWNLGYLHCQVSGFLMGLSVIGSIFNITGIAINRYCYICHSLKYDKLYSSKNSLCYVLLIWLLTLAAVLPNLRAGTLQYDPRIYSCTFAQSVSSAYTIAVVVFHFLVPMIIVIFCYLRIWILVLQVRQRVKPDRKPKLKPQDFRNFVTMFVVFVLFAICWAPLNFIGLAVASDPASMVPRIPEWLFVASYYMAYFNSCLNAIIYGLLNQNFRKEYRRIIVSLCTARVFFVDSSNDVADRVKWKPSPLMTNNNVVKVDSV

| Compound | IC50 ([1]; Table 1) | IC50 [2] | (IC50: ML-1)/(IC50: CCB) [3] | percentage of binding 5-HT2B ([1]; Table 1, at 100×10^−7 M) | (IC50: 5-HT2B)/(IC50: CCB) ([1]; Table 2, relative potency compared to CCB) | percentage of binding MT2 [4] | % Binding MT-1 ([5]; at 0.1 ×10^−7 M) | % Binding MT-1 ([5]; at 0.3 ×10^−7 M) | % Binding MT-1 ([5]; at 1.0 ×10^−7 M) | % Binding MT-1 ([5]; at 3.0 ×10^−7 M) |
| --- | --- | --- | --- | --- | --- | --- | --- | --- | --- | --- |
| CCOC(=O)C1=C(C)NC(C)=C(C(=O)OC)C1c1cccc(Cl)c1Cl (centres unmarked) [Felodipine] | 1300 nM | – | – | – | – | – | – | – | – | – |
| COC(=O)C1=C(C)NC(C)=C(C(=O)OC(C)C)C1c1cccc2nonc12 (centres unmarked) [Isradipine] | > 10000 nM | 2000 nM | 4,348 | 3% | 21,739 | – | – | – | – | – |
| COc1ccc(CCN(C)CCC[C@](C#N)(c2ccc(OC)c(OC)c2)C(C)C)cc1OC [R-verapamil, (R)-verapamil] | – | – | – | – | – | 0% | 13% | 35% | 67% | 83% |
